This is an account of results in article PMC5459956 (International Journal of Nanomedicine, 2017).

Structures are written as SMILES. pIC50: −log10 of the molar value.

The subject of data set [1] is MV-4–11 cells. Description: MV-4–11 cytotoxicity assay. It counts as cell-based. The note with it: read-out: 72-h IC50, 72 h exposure, PrestoBlue.
For data set [2] the following is noted: cited from earlier work.
In data set [3] the test system is healthy bronchial epithelial cells. The note with it: in vitro; cited from earlier work.
The subject of data set [4] is ROS generation in MV-4–11 cells. The data set can be described thus: Reactive oxygen species assay. The note with it: 4 h, Cu(DDC)2 200 µM, menadione 50 µM, versus cell-free condition. Format: cell-based.

Take `CCN(CC)C(=S)[S-].CCN(CC)C(=S)[S-].[Cu+2]` [Cu(DDC)2, Copper diethyldithiocarbamate]: in data set [1], the negative logarithm of the IC50 (pIC50) (in general, the negative decadic logarithm of the IC50, by convention in mol/L) was roughly 6.96. The “solubility (slightly soluble precipitate)” value in data set [2] is less than 100 µg/mL. The “effect in healthy bronchial epithelial cells” value in data set [3] was “did not have any effect”.

In the case of `CC1=CC(=O)c2ccccc2C1=O` [Menadione, menadione], in data set [4], the ROS generation entry is given as “ROS formation in the cells was evident”.
